According to US7183383B2, “Uses of collagen IV” (The University of Arkansas for Medical Sciences, priority 2002, dated 2007):

Tests used:
[1] = test system: renal proximal tubular cells; assay: Cell density (monolayer protein content) in DCVC-injured RPTC; assay type: cell-based, rabbit
Method: Rabbit renal proximal tubules were isolated using the iron oxide perfusion method and grown in 35-mm tissue culture dishes or 48-well cell culture clusters under improved conditions as previously described (35, 36). The cell culture medium was a 1:1 mixture of DMEM/Ham's F-12 (without D-glucose, phenol red, or sodium pyruvate) supplemented with 15 mM HEPES buffer, 2.5 mM L-glutamine, 1 μM pyridoxine HCl, 15 mM sodium bicarbonate, and 6 mM lactate. Hydrocortisone (50 nM), selenium (5 ng/ml), human transferrin (5 μg/ml), bovine insulin (10 nM), and L-ascorbic acid-2-phosphate (50 μM or 500 μM) were added to fresh culture medium immediately prior to daily media change. L-Ascorbic acid-2-phosphate (AscP) was used due to the fact that L-ascorbic acid is unstable in culture media. AscP is stable in culture media for ≧7 days at 37° C. and, after intracellular dephosphorylation, has the same effect on cultured cells as L-ascorbic acid (13).
Confluent monolayers of renal proximal tubular cells (day 6 after seeding) were exposed to 200 μM S-(1,2-dichlorovinyl)-L-cysteine (dissolved in water) for 1.75 hours followed by toxicant removal and addition of fresh culture media. This method produces approximately 50% cell death and loss 24 hours after the exposure. On days 1, 4, and 6 following S-(1,2-dichlorovinyl)-L-cysteine exposure, the ability of the remaining renal proximal tubular cells to regenerate and repair physiological function was monitored as described below. In some experiments, immediately after S-(1,2-dichlorovinyl)-L-cysteine exposure and after daily media change through day 6 after injury, collagen I (0, 5, 15, or 50 μg/ml), collagen IV (0, 5, 15, or 50 μg/ml), laminin (50 μg/ml), or cellular fibronectin (50 μg/ml) was added to the culture media of uninjured and S-(1,2-dichlorovinyl)-L-cysteine-injured renal proximal tubular cells grown in physiological concentrations of AscP. Exogenous collagens I and IV used in this study were triple helical and contained only α1 and α2 chains in conformations similar to those found in the renal basement membrane (3, 25). Laminin was a mixture of biologically active laminin chains found in most epithelial tissues (8, 50) and cellular fibronectin was composed of functional dimers (51).
Measurement of monolayer protein content over time was used to estimate cell density. On days 1, 4, and 6 after sublethal S-(1,2-dichlorovinyl)-L-cysteine injury, renal proximal tubular cell monolayers were washed with PBS and solubilized in Triton buffer (0.05% Triton X-100, 100 mM Tris-Base, 150 mM NaCl, pH 7.5). Samples were sonicated and protein concentrations determined using the method of Lowry (26) or the bicinchoninic acid microassay according to the manufacturer's instructions (Pierce, Rockford, Ill.).

[2] = test system: renal proximal tubular cells; assay: Active Na^+ transport (ouabain-sensitive QO2); assay type: cell-based, rabbit; settings: for decrease in active Na^+ transport: day 1 after DCVC injury, in presence of the agent; for active Na+ transport in uninjured RPTC: days 1 or 6
Method: Confluent monolayers of renal proximal tubular cells (day 6 after seeding) were exposed to 200 μM S-(1,2-dichlorovinyl)-L-cysteine (dissolved in water) for 1.75 hours followed by toxicant removal and addition of fresh culture media. This method produces approximately 50% cell death and loss 24 hours after the exposure. In some experiments, exogenous collagen IV (50 μg/ml), collagen I (50 μg/ml), or function-stimulating antibodies to collagen-binding integrin subunits α2 or β1 (5 μg/ml) was added daily to the culture media of S-(1,2-dichlorovinyl)-L-cysteine-injured renal proximal tubular cells cultured in the absence of pharmacological concentrations of L-ascorbic acid-2-phosphate. Function-stimulating antibodies to collagen-binding integrin α1 are not commercially available at this time. On days 1 and 6 following S-(1,2-dichlorovinyl)-L-cysteine exposure, active Na^+ transport or Na^+/K^+-ATPase activity, and collagen-binding integrin expression and/or localization in the remaining sublethally injured renal proximal tubular cells was determined as described below.
Renal proximal tubular cells were gently detached from culture dishes with a rubber policeman and transferred to a 37° C. oxygen consumption (QO2) chamber. QO2 in renal proximal tubular cells was measured polarographically in the absence (basal QO2) or presence of ouabain (100 μM) (ouabain-insensitive QO2) using a Clark-type electrode as described previously (Nowak and Schnellmann, 1995). Active Na^+ transport (ouabain-sensitive QO2) was calculated by subtracting ouabain-insensitive QO2 from basal QO2. Protein concentrations were determined using the bicinchoninic acid microassay according to the manufacturer's instructions (Pierce, Rockford, Ill.).

[3] = day 6, AscP 500 μM or collagen IV 50 μg/ml

collagen IV: Human placenta collagen IV (Sigma); triple helical, containing only α1 and α2 chains
decrease in monolayer cell density ([1]; day 1 after DCVC injury, in presence of exogenous protein): approximately 50%
monolayer protein content in injured RPTC ([1]; day 1 or day 6 after DCVC, 50 μg/ml): no change
cell density as percent of that of uninjured RPTC ([1]; day 6 after DCVC injury, in presence of exogenous protein): approximately 50%
monolayer cell density in untreated RPTC ([1]; uninjured RPTC, days 1 or 6, exogenous protein): no effect
decrease in active Na^+ transport [2]: approximately 80%
active Na^+ transport in DCVC-injured RPTC [2, 3]: increase in active Na^+ transport
active Na^+ transport in DCVC-injured RPTC ([2]; day 6 after injury, 5, 15, 50 μg/ml): concentration-dependent improvement
active Na+ transport in uninjured RPTC [2]: no effect

O=C1O[C@H]([C@@H](O)CO)C(O)=C1OP(=O)(O)O [L-ascorbic acid-2-phosphate, L-Ascorbic acid-2-phosphate]
monolayer protein content ([1]; 4 days after DCVC, 50 μM or 500 μM AscP): remained at day 1 levels
monolayer protein content greater than that of DCVC-treated RPTC grown in 50 μM AscP ([1]; 6 days after DCVC, 500 μM AscP): 34%
cell death and loss (decrease in monolayer protein content) ([1]; day 1 after DCVC, RPTC cultured in 500 μM AscP): 55%
monolayer protein content, untreated RPTC, 50 μM vs 500 μM ([1]; uninjured RPTC, any time point): no significant differences
decrease in active Na^+ transport [2]: approximately 80%
active Na^+ transport in DCVC-injured RPTC [2, 3]: increase in active Na^+ transport
active Na+ transport in uninjured RPTC [2]: no effect

N[C@@H](CSC(Cl)=CCl)C(=O)O [S-(1,2-dichlorovinyl)-L-cysteine]
cell death and loss ([1]; 200 μM for 1.75 hours, 24 hours after the exposure): approximately 50%
decrease in monolayer protein content compared to control ([1]; day 1 after DCVC (200 μM), RPTC cultured in 50 μM AscP): 56%
active Na^+ transport ([2]; day 1 following DCVC injury): marked inhibition
active Na^+ transport ([2]; day 6 after DCVC injury): marked inhibition
